Test [1] has as its system Sox2, Oct 3/4 and Nanog expression in metastatic prostate stem cell lines. In words: Western blot of stem cell markers after Docetaxel. In kind it is cell-based, human. To be noted: Docetaxel 1 nM, 2 nM, 5 nM, 10 nM. The protocol:
(§1) Prostate cancer stem cells from metastatic prostate cancer cell lines were examined for their sensitivity to conventional cancer treatments (e.g., radiation and chemotherapy). […] Metastatic prostate stem cell lines were also treated with Docetaxel, a frontline treatment for drug-resistant cancer cells.
For the experiments described above, Western-blot analysis was performed by standard methods on isolated cancer stem cells and non-cancer stem cells. Whole cell lysates were prepared in lysis buffer with a commercially available protease inhibitor cocktail (Pierce) at 4° C., followed by centrifugation at 13,000×g for 10 min. Extracts were separated by SDS/PAGE and transferred to nitrocellulose membranes. The membranes were blocked with 5% nonfat dry milk in 20 mM Tris-HCl (pH 7.5), 500 mM sodium chloride, and 0.05% Tween 20 for 2 h and then incubated with commercially available primary antibodies against OCT3/4, c-Myc, β-actin (Cell Signaling), SOX2, Klf4 (Santa Cruz), Nanog (BioLegend), or E-cadherin (BD Bioscience) in the same buffer with 1% BSA (fraction V). After washing, the blots were incubated with an HRP-conjugated secondary antibody and visualized with a commercially available chemiluminescence detection system (Amersham). β-actin-specific Abs were used to ensure equal protein loading.
A general note: In western blotting, separated proteins are transferred to a membrane and probed.

The subject of test [2] is prostate cancer stem cells (CSC) and non-stem prostate cancer cells (Non-CSC). Put plainly: cell viability after Docetaxel. It is filed as cell-based, human. To be noted: 5 nM Docetaxel, Day 0, 1, 2 and 3 (up to 72 hours). The protocol:
FIG. 12B is a graph depicting the cell viability of prostate cancer stem cells (CSC) and non-stem prostate cancer cells (Non-CSC) observed for up to 72 hours after treatment with Docetaxel. Cell viability was determined by quantifying the surviving prostate cancer stem cells (CSC) and non-stem prostate cancer cells (Non-CSC) in the samples exposed to 5 nM Docetaxel at Day 0, 1, 2 and 3.
as §1

Data on 1 compound can be found in US20110171221A1, “COMPOSITIONS AND METHODS FOR THE TREATMENT OF A NEOPLASIA” (University of Florida Research Foundation, priority 2008, published 2011).

Entries after “also recorded” stand apart in the source; their conditions may differ.

As for `CC(=O)O[C@@]12CO[C@@H]1C[C@H](O)[C@@]1(C)C(=O)[C@H](O)C3=C(C)[C@@H](OC(=O)[C@H](O)[C@@H](NC(=O)OC(C)(C)C)c4ccccc4)C[C@@](O)([C@@H](OC(=O)c4ccccc4)[C@H]21)C3(C)C` [Docetaxel], the “detection of Sox2, Oct 3/4 and Nanog expression” value in test [1] is “increased detection of Sox2, Oct 3/4 and Nanog expression with increasing dose”. Besides, the “cell viability of prostate cancer stem cells vs non-stem prostate cancer cells” value in test [2] is given as “more cell viability compared to non-stem prostate cancer cells; also recorded: resistant”.
